Measurements from patent US4289748A, “Ultrasensitive enzymatic radioimmunoassay method” (United States of America, priority 1979, dated 1981).
Values belong to the molecule of their own block, whether it stands above or below them.

What was measured:
[1] = biological target: alkaline phosphatase-IgG (goat anti-rabbit) conjugate (Bos taurus, UniProt P19111); experiment: Enzyme kinetics of alkaline phosphatase-IgG conjugate with varying AMP concentrations, double reciprocal plot; assay type: biochemical, calf; conditions: 10 mM diethanolamine buffer pH 9.8, 37° C., 30 minutes, conjugate 2×10^-8 mg/ml; double reciprocal plot (FIG. 4b)
Sequence of alkaline phosphatase-IgG (goat anti-rabbit) conjugate (P19111 20-506 limits assumed): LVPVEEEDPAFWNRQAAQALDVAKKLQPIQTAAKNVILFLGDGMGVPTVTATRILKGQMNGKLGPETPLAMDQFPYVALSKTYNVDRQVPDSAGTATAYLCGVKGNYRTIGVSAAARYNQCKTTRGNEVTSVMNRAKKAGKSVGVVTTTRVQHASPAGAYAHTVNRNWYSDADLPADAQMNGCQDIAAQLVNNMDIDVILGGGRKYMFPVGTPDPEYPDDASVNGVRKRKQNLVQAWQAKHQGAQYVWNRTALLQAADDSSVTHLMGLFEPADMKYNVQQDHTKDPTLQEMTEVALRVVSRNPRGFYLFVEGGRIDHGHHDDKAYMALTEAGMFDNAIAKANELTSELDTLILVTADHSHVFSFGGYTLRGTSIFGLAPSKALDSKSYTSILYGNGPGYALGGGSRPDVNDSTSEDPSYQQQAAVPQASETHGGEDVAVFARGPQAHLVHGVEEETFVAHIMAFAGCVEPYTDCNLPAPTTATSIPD
Method: To determine the enzyme kinetics of alkaline phosphatase-IgG (goat anti-rabbit) conjugate, varying concentrations of adenosine-5'-monophosphate were added to a 10^6 dilution of the enzyme-IgG conjugate. […] Alkaline phosphatase conjugate (2×10^-8 milligrams per milliliter) was added to 10 mM diethanolamine buffer having a pH of 9.8, containing various concentrations of AMP. The reaction mixtures were incubated at 37° C. for 30 minutes. The tritium-labelled adenosine released was determined by column chromatography utilizing DEAE Sephadex by applying an 0.05 milliliter aliquot of the reaction mixture to a column packed with 1.5 milliliters DEAE Sephadex A-25 followed by elutation with a total of 4.5 milliliters of 0.01 M diethanolamine buffer with a pH of 9.8, containing 0.1 mM unlabelled adenosine in two fractions. 20 ml of liquid scintillator, Aquasol®, was added to each fraction and the tritium-labelled adenosine was measured in a liquid scintillation counter. The Km was calculated to be approximately 4 mM by a double reciprocal plot of the Michalis-Menton equation which is shown in FIG. 4b. […] The counting of the actual scintillation counter was adjusted in accordance with standard techniques to yield DPM, disintegrations per minute. Varying concentrations of diethanolomine buffer and MgCl2 were tested. […]

[2] = biological target: alkaline phosphatase-IgG conjugate (Bos taurus, UniProt P19111); experiment: Effect of reaction products on the alkaline phosphatase-IgG conjugate assay (tritium-AMP hydrolysis); assay type: biochemical, calf; conditions: 100 picamole tritium-AMP, 10 mM buffer pH 9.0, 37° C.
Sequence of alkaline phosphatase-IgG conjugate (P19111 20-506 limits assumed): as above
Method: Triplicates of the assay mixture containing 100 picamole of tritium-AMP and 10^-8 milligrams of enzyme conjugate in 0.1 milliliter of 10 mM buffer with a pH of 9.0 were incubated at 37° C. from 0 to 48 hours. Aliquots of 50 microliters of the reaction mixtures were withdrawn for determination of enzyme activity at 0.5, 1.5, 4.5, 24 and 48 hours. The enzyme activity was nearly linear for 90 minutes with approximately 2% of the tritium-AMP hydrolyzed to tritium-adenosine and phosphate. At 24 and 48 hours, the enzyme reaction became slower. Since the tritium-AMP radioindicator was still in excess, the reduction of enzyme activity could be secondary to enzyme degradation and/or product inhibition. To determine the effects of reaction products on the assay, either phosphate (2 or 20 picamoles) or adenosine (20 picamoles) was added to the assay mixtures. 2 and 20 picamole phosphate inhibited alkaline phosphatase activity by 8% and 90% respectively. […] The variation in the triplicate samples was small. For reaction times of less than 5 hours, the variation in either duplicate or triplicate samples was less than 10% of the mean value.

Km [1]: ~4 mM
Molecule: Nc1ncnc2c1ncn2[C@@H]1O[C@H](COP(=O)(O)O)[C@@H](O)[C@H]1O [adenosine-5'-monophosphate]

inhibition of alkaline phosphatase activity ([2]; 2 picamole phosphate added to 0.1 ml assay mixture): 8%
inhibition of alkaline phosphatase activity ([2]; 20 picamole phosphate added to 0.1 ml assay mixture): 90%
Molecule: phosphate

Molecule: Nc1ncnc2c1ncn2[C@@H]1O[C@H](CO)[C@@H](O)[C@H]1O [adenosine]
effect on the activity of the phosphatase ([2]; 20 picamole adenosine added to 0.1 ml assay mixture): no detectable effect
